Data on 1 compound can be found in patent publication US20220184091A1, “Methods of Treating Cancer with Chk1 Inhibitors” (Sierra Oncology, Inc., priority 2019, published 2022).

One series deals with SW1990. The series is described as follows: Cell viability, pancreatic cancer line SW1990. It is filed as cell-based. To be noted: Homo sapiens.
The subject of series [1] is cryopreserved hepatocytes. The series is described as follows: Rank order of stability in cryopreserved hepatocytes across species. It is filed as in vitro ADME, human, mouse, rat, dog, minipig and monkey. The settings on record: 10 μM, up to 4 hours. As to the method: The formation of SRA737-related metabolites was determined in cryopreserved hepatocytes from human, mouse, rat, dog, minipig and monkey samples after incubation with SRA737 at a nominal concentration of 10 μM for up to 4 hours. […] In the human hepatocyte preparation, approximately 67% of the parent remained after 4 hours of incubation compared to 75% and 7% in the rat and minipig preparations, respectively. Eight human SRA737 metabolites were observed. All SRA737 metabolites formed by human hepatocytes were also formed by monkey hepatocytes. Six metabolites were present at equal or greater abundance in the monkey.

In another series the test system is SNU-C1. Kind of series: Cell viability, colon cancer line SNU-C1. It is filed as cell-based. The settings on record: Homo sapiens.
For the next series, the system named is Pan02. The series is described as follows: Pan02 pancreatic flank tumor growth in immunocompetent mice. It is filed as in vivo, mouse. The settings on record: SRA737 100 mg/kg 5-days-on/2-days-off p.o., anti-PD1 BIW 10 mg/kg i.p. The procedure: (§1) Tumors were evaluated twice weekly for the duration of the study. Tumor volumes were measured on all mice three times per week and calculated (width^2×length×0.4) using manual calipers. Once the average tumor size was in the range of 120-150 mm^3, mice were randomized into dosing groups using stratified sampling by assigning three animals per group for short-term reverse-phase protein array analysis and long-term treatment. Dosing schedules and duration varied depending on the study. Mice were weighed three times per week for the duration of the study, and a decrease in body weight >15% was considered indicative of a toxic dose. The Student t-test was used to determine statistical significance between compound- and vehicle-treated groups.
(§2) Tumors cells were implanted into the flank of immunocompetent mice. Once the volumes of the tumor reached 150-200 mm^3, the mice were randomized and treated with either monotherapy of SRA737 at 100 mg/kg for 5-days-on/2-days-off p.o., anti-PD1 BIW at 10 mg/kg i.p. or the combination thereof.

In series [2] the test system is HGSOC PDX, OVCAR3, Ep-Myc, MOLM-13, TH-MYC, MDA-MB-231, Renca, LL/2 models. The series is described as follows: In vivo efficacy of SRA737 as a single agent. Also on record: species or system mouse. The procedure:
A program of in vivo efficacy studies was performed to assess the activity of SRA737 in combination with genotoxic chemotherapy and targeted agents, and as monotherapy.
One of these models also carried a MYCN amplification. A fourth HGSOC PDX model with partial resistance to PARPi was also sensitive to high dose SRA737 monotherapy.

The subject of a further series is MC38. Kind of series: MC38 colon flank tumor growth in immunocompetent mice. It is filed as in vivo, mouse. As to the method:
as §1, §2

For the next series, the system named is CXCL10 and CCL5. The series is described as follows: qPCR of CXCL10 and CCL5 in MC38 tumors. It is filed as in vivo, mouse. An excerpt:
FIGS. 23A-D show the qPCR measurement of CXCL10 and CCL5 mRNA expression in MBT-2 (FIG. 23A and FIG. 23B) and MC38 (FIG. 23C and FIG. 23D) tumors resected after 7 or 14 days of treatment with SRA737 5/7 days. Data presented as mean±SD and p values by t-test * p<0.05, **p<0.01, ***p<0.001.
(§3) Real-time PCR was done using SYBR Select Master Mix (Life Technologies, cat #4472908) according to the manufacturer's protocol. Primers were purchased from Sigma Aldrich, Inc. Triplicate PCR reactions were run on ABI (7500 Fast Real Time PCR System). The comparative Ct method using the average 2ΔΔCT value for each set of triplicates was used, and the average of the biological replicates was calculated. Negative controls were included for every primer set, and GAPDH was used as the […].
The flank of immunocompetent mice was then treated with SRA737 monotherapy for 5-days-on/2-days-off for either one or two cycles and the expression of CCL5 and CXCL10 in extracted tumors were analyzed. […] The previously used dosing regimen of 5-days-on/2-days-off was modified to a schedule of 7-days-on/7-days-off for SRA737 treatment with or without co-treatment with anti-PD1 (Days 3, 7 and 11) based on the results of induction of chemokines secretion after 7 days.

In another series the test system is IFNβ, CXCL10 and CCL5. The series is described as follows: qPCR of IFNβ, CXCL10 and CCL5 in resected RPP tumors. It is filed as in vivo, mouse. The procedure:
Data presented as mean±SD and p values by t-test * p<0.05, **p<0.01, ***p<0.001.
as §3
A general note: Quantitative PCR measures a nucleic acid by following its amplification.

In another series the test system is RPP tumor. The series is described as follows: Flank RPP (SCLC) tumor growth in B6129F1 immunocompetent mice. It is filed as in vivo, mouse. The settings on record: anti-PD-L1 300 μg 1-day-on/6-days-off. The procedure: as §1
[…] 15A.

Series [3] in a line: Phase 1 clinical study, SRA737 monotherapy dose escalation. The settings on record: human, in vivo. The procedure: A Phase 1 clinical trial was conducted in ‘all comers,’ i.e. no genetic selection was performed, to establish safety, tolerability and pharmacokinetics (“Dose Escalation Phase”). Cohorts consisting initially of a single subject received escalating doses of SRA737, starting in Cohort 1 with 20 mg/day administered orally on a continuous daily dosing schedule in 28 day cycles. the dose was escalated until the maximum tolerated dose (MTD) was identified.
In the Dose Escalation Phase, 18 subjects received SRA737 in 9 dose level cohorts, from 20 to 1300 mg QD; median treatment duration 62.5 days (range 1 to 226). […] Two of 3 subjects experienced DLTs at the 1300 mg once daily dose, each being an inability to receive 75% of the planned SRA737 dose due to GI intolerability, with the individual GI effects being low grade. […] A cohort receiving 500 mg twice daily was added to determine if a twice daily dosing schedule can improve GI tolerability, given the half-life of SRA737 is approximately 10 hours. One of 6 subjects experienced DLTs in the 500 mg twice daily cohort; this was an inability to receive 75% of the planned SRA737 dose due to grade 4 thrombocytopenia with grade 3 neutropenia and anemia.

The subject of another series is 5637. Kind of series: Cell viability, bladder cancer line 5637. It is filed as cell-based.

pIC50: −log10 of the molar value.

Regarding `N#Cc1cnc(Nc2cc(NCC3CNCCO3)c(C(F)(F)F)cn2)cn1` (centres unmarked) [SRA737, 5-[[4-[[morpholin-2-yl]methylamino]-5-(trifluoromethyl)-2-pyridyl]amino]pyrazine-2-carbonitrile], the results for the negative-log IC50 (pIC50) in the series with SW1990, in the series with SNU-C1 and in the series with 5637 were 6.15, 5.89 and 5.68, respectively. The “rank order of stability from most stable to least stable” value in [1] is listed as “rat≈mouse >monkey≈human >>dog >>minipig”. The tumour growth inhibition (TGI) with Pan02 came out at 59%; with MC38 (SRA737 100 mg/kg 5-days-on/2-days-off p.o., anti-PD1 BIW 10 mg/kg i.p.), 48%. Further, the “sensitivity to high dose monotherapy” value in series [2] (fourth HGSOC PDX model with partial resistance to PARPi) is listed as “sensitive”. In [2] (several HGSOC PDX models with CCNE1 amplifications and TP53 mutations, data not shown), the “antitumor activity as a single agent” value was “Significant antitumor activity”. The tumor growth inhibition in the series on MC38 (altered regimen SRA737 7-days-on/7-days-off, anti-PD-1 Days 3, 7 and 11) is recorded as 61%. The “expression of CCL5” value in the series on CXCL10 and CCL5 (after 7 days) is reported as “modestly but not statistically significantly reduced”. For the same compound, in the series on CXCL10 and CCL5 (after 14 days, p<0.05), the CXCL10 levels entry was “significantly increased”. In addition, in the series on IFNβ, CXCL10 and CCL5 (RPP tumors at Day 21, 100 mg/kg 5-days-on/2-days-off), the “gene expression levels of IFNβ, CXCL10 and CCL5 vs vehicle” value is reported as “higher gene expression levels”. The “expression of IFNβ, CCL5 and CXCL10” value in the series with IFNβ, CXCL10 and CCL5 (RPP tumors resected at Day 21, SRA737 2-days-on/5-days-off) is “Neither LDG nor SRA737 monotherapy (2-days-on/5-days-off) showed any significant effect”. The “anti-tumor response (tumor growth)” value with RPP tumor (SRA737 100 mg/kg 3-days-on/4-days-off or 5-days-on/2-days-off) is “significant reduction in tumor growth”. Besides, the “anti-tumor effect (tumor volume)” value with RPP tumor (LDG 40 mg/kg 1-day-on/6-days-off, SRA737 100 mg/kg 2-day-on/5-days-off) was “no significant anti-tumor effect”. Further, the “doses that exceeded the level effective in preclinical models” value in series [3] is reported as at least 300 mg. Also, the T1/2 in series [3] (800 mg) is 10.3 h.

As usually defined, the pIC50 is −log10 of the IC50, conventionally taken in molar units. A high value points to a low IC50. The TGI is the reduction of tumour growth relative to the control group.
